Laboratory results as given in PubChem BioAssay AID248 (DTP/NCI, 2004).
Toxic doses and inconclusive results are not listed.

Tested on: L1210 leukemia ip in BDF1 mice, survival T/C
Assay: NCI In Vivo Anticancer Drug Screen. Data for tumor model L1210 Leukemia (intraperitoneal) in B6D2F1 (BDF1) mice
Conditions: higher = longer survival
Summary of the method: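 Transplanted-tumor mice were given test agent; controls received vehicle only. Survival readings from the two groups were divided (treated over control).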

[1] = endpoint: mean survival time, dose: 50.0 mg/kg/injection, schedule: Q01DX001 (ip), vehicle: carboxymethylcellulose (CMC)
[2] = endpoint: mean survival time, dose: 100.0 mg/kg/injection, schedule: Q01DX001 (ip), vehicle: carboxymethylcellulose (CMC)
[3] = endpoint: mean survival time, dose: 200.0 mg/kg/injection, schedule: Q01DX001 (ip), vehicle: carboxymethylcellulose (CMC)
[4] = endpoint: mean survival time, dose: 400.0 mg/kg/injection, schedule: Q01DX001 (ip), vehicle: carboxymethylcellulose (CMC)
[5] = endpoint: mean survival time, dose: 100.0 mg/kg/injection, schedule: Q01DX001 (ip), vehicle: Klucel (hydroxypropylcellulose) (HPC)
[6] = endpoint: mean survival time, dose: 100.0 mg/kg/injection, schedule: Q04DX003 (ip), vehicle: Klucel (hydroxypropylcellulose) (HPC)
[7] = endpoint: mean survival time, dose: 200.0 mg/kg/injection, schedule: Q01DX001 (ip), vehicle: Klucel (hydroxypropylcellulose) (HPC)
[8] = endpoint: mean survival time, dose: 200.0 mg/kg/injection, schedule: Q04DX003 (ip), vehicle: Klucel (hydroxypropylcellulose) (HPC)
[9] = endpoint: mean survival time, dose: 400.0 mg/kg/injection, schedule: Q01DX001 (ip), vehicle: Klucel (hydroxypropylcellulose) (HPC)
[10] = endpoint: mean survival time, dose: 400.0 mg/kg/injection, schedule: Q04DX003 (ip), vehicle: Klucel (hydroxypropylcellulose) (HPC)
[11] = endpoint: mean survival time, dose: 100.0 mg/kg/injection, schedule: Q04DX003 (ip), vehicle: saline with Tween-80
[12] = endpoint: mean survival time, dose: 200.0 mg/kg/injection, schedule: Q04DX003 (ip), vehicle: saline with Tween-80

SMILES: N=C1SSC(=S)C1C(N)=O (stereo not given)
- T/C [1]: 94 % of control
- T/C [2]: 96 % of control
- T/C [3]: 100 % of control
- T/C [4]: 100 % of control

SMILES: CCN(CC)CCOc1ccccc1C
- T/C (endpoint: mean survival time, dose: 20.0 mg/kg/injection, schedule: Q01DX009 (ip), vehicle: saline): 90 % of control
- T/C (endpoint: mean survival time, dose: 40.0 mg/kg/injection, schedule: Q01DX009 (ip), vehicle: saline): 88 % of control
- T/C (endpoint: mean survival time, dose: 40.0 mg/kg/injection, schedule: Q04DX003 (ip), vehicle: saline): 106 % of control
- T/C (endpoint: mean survival time, dose: 80.0 mg/kg/injection, schedule: Q01DX009 (ip), vehicle: saline): 89 % of control
- T/C (endpoint: mean survival time, dose: 80.0 mg/kg/injection, schedule: Q04DX003 (ip), vehicle: saline): 100 % of control

SMILES: CCC(CCNC(=O)c1ccccc1)(CCNC(=O)c1ccccc1)[N+](=O)[O-]
- T/C (endpoint: mean survival time, dose: 100.0 mg/kg/injection, schedule: Q01DX001 (ip), vehicle: saline): 95 % of control
- T/C (endpoint: mean survival time, dose: 200.0 mg/kg/injection, schedule: Q01DX001 (ip), vehicle: saline): 106 % of control
- T/C (endpoint: mean survival time, dose: 400.0 mg/kg/injection, schedule: Q01DX001 (ip), vehicle: saline): 92 % of control

SMILES: CC1OC(OC2CC(O)C3(CO)C4C(O)CC5(C)C(C6=CC(=O)OC6)CCC5(O)C4CCC3(O)C2)C(O)C(O)C1O (stereo not given)
- T/C (endpoint: mean survival time, dose: 0.5 mg/kg/injection, schedule: Q01DX009 (ip), vehicle: saline): 100 % of control
- T/C (endpoint: mean survival time, dose: 1.0 mg/kg/injection, schedule: Q01DX009 (ip), vehicle: saline): 121 % of control
- T/C (endpoint: mean survival time, dose: 1.25 mg/kg/injection, schedule: Q01DX001 (ip), vehicle: saline): 100 % of control
- T/C (endpoint: mean survival time, dose: 2.0 mg/kg/injection, schedule: Q01DX009 (ip), vehicle: saline): 113 % of control
- T/C (endpoint: mean survival time, dose: 2.5 mg/kg/injection, schedule: Q01DX001 (ip), vehicle: saline): 104 % of control
- T/C (endpoint: mean survival time, dose: 4.0 mg/kg/injection, schedule: Q01DX009 (ip), vehicle: saline): 106 % of control
- T/C (endpoint: mean survival time, dose: 5.0 mg/kg/injection, schedule: Q01DX001 (ip), vehicle: saline): 101 % of control
- T/C (endpoint: mean survival time, dose: 6.25 mg/kg/injection, schedule: Q01DX001 (ip), vehicle: saline): 105 % of control
- T/C (endpoint: mean survival time, dose: 12.5 mg/kg/injection, schedule: Q01DX001 (ip), vehicle: saline): 106 % of control
- T/C (endpoint: median survival time, dose: 1.0 mg/kg/injection, schedule: Q01DX005 (ip), vehicle: water): 105 % of control
- T/C (endpoint: median survival time, dose: 2.0 mg/kg/injection, schedule: Q01DX005 (ip), vehicle: water): 104 % of control
- T/C (endpoint: median survival time, dose: 4.0 mg/kg/injection, schedule: Q01DX005 (ip), vehicle: water): 109 % of control

SMILES: COc1ccc(C2=NCCO2)cc1N
- T/C [5]: 114 % of control
- T/C [6]: 96 % of control
- T/C [7]: 104 % of control
- T/C [8]: 98 % of control
- T/C [9]: 104 % of control
- T/C [10]: 91 % of control

SMILES: Cc1ccc(C2(O)CC3CCC2(c2ccc(C)cc2)C3)cc1 (stereo not given)
- T/C [1]: 95 % of control
- T/C [2]: 101 % of control
- T/C [3]: 98 % of control
- T/C [4]: 98 % of control

SMILES: CC(C)(C)c1cc(C[P+](c2ccccc2)(c2ccccc2)c2ccccc2)cc(C(C)(C)C)c1O
- T/C (endpoint: mean survival time, dose: 1.56 mg/kg/injection, schedule: Q01DX009 (ip), vehicle: saline): 106 % of control
- T/C (endpoint: mean survival time, dose: 1.56 mg/kg/injection, schedule: Q04DX003 (ip), vehicle: saline): 91 % of control
- T/C (endpoint: mean survival time, dose: 3.12 mg/kg/injection, schedule: Q01DX009 (ip), vehicle: saline): 105 % of control
- T/C (endpoint: mean survival time, dose: 3.12 mg/kg/injection, schedule: Q04DX003 (ip), vehicle: saline): 96 % of control
- T/C (endpoint: mean survival time, dose: 6.25 mg/kg/injection, schedule: Q04DX003 (ip), vehicle: saline): 91 % of control

SMILES: CC(C)(C)NC(=O)Cc1ccccc1
- T/C (endpoint: mean survival time, dose: 50.0 mg/kg/injection, schedule: Q04DX003 (ip), vehicle: saline with Tween-80): 97 % of control
- T/C [11]: 98 % of control
- T/C [12]: 103 % of control

SMILES: CN(C)C(=S)Sc1ccc([N+](=O)[O-])cc1[N+](=O)[O-]
- T/C (endpoint: mean survival time, dose: 100.0 mg/kg/injection, schedule: Q01DX001 (ip), vehicle: saline with Tween-80): 96 % of control
- T/C (endpoint: mean survival time, dose: 100.0 mg/kg/injection, schedule: Q01DX009 (ip), vehicle: Klucel (hydroxypropylcellulose) (HPC)): 91 % of control
- T/C (endpoint: mean survival time, dose: 200.0 mg/kg/injection, schedule: Q01DX001 (ip), vehicle: saline with Tween-80): 100 % of control
- T/C (endpoint: mean survival time, dose: 200.0 mg/kg/injection, schedule: Q01DX009 (ip), vehicle: Klucel (hydroxypropylcellulose) (HPC)): 93 % of control
- T/C (endpoint: mean survival time, dose: 400.0 mg/kg/injection, schedule: Q01DX001 (ip), vehicle: saline with Tween-80): 100 % of control
- T/C [10]: 86 % of control

SMILES: CCCCN(CCCC)CC(O)c1cccc2c1cc(Cl)c1ccccc12 (stereo not given)
- T/C [6]: 102 % of control
- T/C [8]: 97 % of control
- T/C [10]: 91 % of control

SMILES: CC1CC/C(=N\N(C)C)c2ccccc21 (stereo not given)
- T/C (endpoint: mean survival time, dose: 100.0 mg/kg/injection, schedule: Q01DX009 (ip), vehicle: saline with Tween-80): 120 % of control
- T/C [11]: 117 % of control
- T/C [12]: 103 % of control
- T/C (endpoint: mean survival time, dose: 400.0 mg/kg/injection, schedule: Q04DX003 (ip), vehicle: saline with Tween-80): 105 % of control

SMILES: Cc1ccccc1C(O)(c1ccccc1C)C1(O)CCN(C)CC1
- T/C (endpoint: mean survival time, dose: 9.37 mg/kg/injection, schedule: Q01DX009 (ip), vehicle: saline): 94 % of control
- T/C (endpoint: mean survival time, dose: 18.75 mg/kg/injection, schedule: Q01DX009 (ip), vehicle: saline): 96 % of control
- T/C (endpoint: mean survival time, dose: 37.5 mg/kg/injection, schedule: Q01DX009 (ip), vehicle: saline): 100 % of control

SMILES: O=C1c2ccccc2CCCC12OC2c1ccccc1 (stereo not given)
- T/C (endpoint: mean survival time, dose: 75.0 mg/kg/injection, schedule: Q04DX003 (ip), vehicle: Klucel (hydroxypropylcellulose) (HPC)): 92 % of control
- T/C (endpoint: mean survival time, dose: 150.0 mg/kg/injection, schedule: Q04DX003 (ip), vehicle: Klucel (hydroxypropylcellulose) (HPC)): 93 % of control
- T/C (endpoint: mean survival time, dose: 300.0 mg/kg/injection, schedule: Q04DX003 (ip), vehicle: Klucel (hydroxypropylcellulose) (HPC)): 95 % of control

SMILES: C#CCOP(=O)(C#CC)OCC#C
- T/C (endpoint: mean survival time, dose: 25.0 mg/kg/injection, schedule: Q04DX003 (ip), vehicle: Klucel (hydroxypropylcellulose) (HPC)): 93 % of control
- T/C (endpoint: mean survival time, dose: 50.0 mg/kg/injection, schedule: Q04DX003 (ip), vehicle: Klucel (hydroxypropylcellulose) (HPC)): 97 % of control
- T/C [6]: 98 % of control
- T/C [11]: 95 % of control

SMILES: C=CSCCCC(C)=O
- T/C [5]: 97 % of control
- T/C [7]: 103 % of control
- T/C [9]: 101 % of control

SMILES: C=CCN(C)N=Nc1ccccc1C(N)=O
- T/C (endpoint: mean survival time, dose: 88.0 mg/kg/injection, schedule: Q01DX009 (ip), vehicle: saline with Tween-80): 158 % of control
- T/C (endpoint: mean survival time, dose: 88.0 mg/kg/injection, schedule: Q04DX003 (ip), vehicle: saline with Tween-80): 122 % of control
- T/C [11]: 116 % of control
- T/C (endpoint: mean survival time, dose: 133.0 mg/kg/injection, schedule: Q01DX009 (ip), vehicle: saline with Tween-80): 150 % of control
- T/C (endpoint: mean survival time, dose: 176.0 mg/kg/injection, schedule: Q01DX001 (ip), vehicle: saline with Tween-80): 109 % of control
- T/C (endpoint: mean survival time, dose: 200.0 mg/kg/injection, schedule: Q01DX009 (ip), vehicle: saline with Tween-80): 95 % of control

SMILES: CC(=O)/C=N/NC(=O)C(O)C(O)C(O)C(O)CO (stereo not given)
- T/C (endpoint: mean survival time, dose: 100.0 mg/kg/injection, schedule: Q04DX003 (ip), vehicle: saline): 102 % of control
- T/C (endpoint: mean survival time, dose: 200.0 mg/kg/injection, schedule: Q04DX003 (ip), vehicle: saline): 94 % of control
- T/C (endpoint: mean survival time, dose: 400.0 mg/kg/injection, schedule: Q04DX003 (ip), vehicle: saline): 91 % of control

SMILES: O=C1/C(=C/c2ccccc2)Cc2cccc(O)c21
- T/C (endpoint: mean survival time, dose: 100.0 mg/kg/injection, schedule: Q01DX009 (ip), vehicle: saline sonified): 100 % of control
- T/C (endpoint: mean survival time, dose: 200.0 mg/kg/injection, schedule: Q01DX009 (ip), vehicle: saline sonified): 107 % of control
- T/C (endpoint: mean survival time, dose: 400.0 mg/kg/injection, schedule: Q01DX009 (ip), vehicle: saline sonified): 102 % of control
